# Marks after values point to notes of the source that are not given here.
# How the values were obtained:
# Type in all cases: in vivo
# [1] = tested on: Puccinia recondite f. sp. tritici; assay: Test E2: preventive spray on wheat seedlings, visual disease rating (wheat leaf rust); conditions: no asterisk: standard test suspension, not 40 ppm
# How it was run: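 Wheat seedlings were inoculated with leaf rust spores one day after a run-off spray of compound at 200 ppm (asterisk: 40 ppm) in 50/50 acetone/water with 250 ppm Trem 014. Incubation: 24 h saturated humidity, 20 °C; then 7 days growth chamber, 20 °C. Disease control scored visually, 0–100% relative to controls.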
# Septoria tritici = assay: Test D: preventive spray on wheat seedlings, visual disease rating (wheat leaf blotch); conditions: no asterisk: standard test suspension, not 40 ppm
# How it was run: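 Protection was scored visually on a 0–100% disease-control scale versus controls, 19 days after plants were moved to 20 °C following 48 h of 24 °C saturated humidity. Spore inoculation with S. tritici took place one day after a preventive run-off spray, usually at 200 ppm (800 g/ha) and at 40 ppm where asterisked.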
# Alternaria solani = assay: Test B: preventive spray on tomato seedlings, visual disease rating (tomato early blight)
# How it was run: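 Compounds were suspended at 200 ppm (asterisked values at 40 ppm) in acetone/water with surfactant and sprayed to run-off on tomato seedlings, 200 ppm being equivalent to 800 g/ha. A. solani spores were inoculated the next day, with 48 h at 27 °C in saturated air, then 5 days at 20 °C. Disease control was rated visually, 0–100% relative to controls.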
# Septoria nodorum = assay: Test C: preventive spray on wheat seedlings, visual disease rating (Septoria glume blotch)
# How it was run: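 Wheat seedlings were sprayed to run-off with 200 ppm suspension (40 ppm where marked; 200 ppm ≈ 800 g/ha) in acetone/water with 250 ppm Trem 014, then inoculated next day with Septoria nodorum spores. Incubation was 48 h saturated at 24 °C, then 6 days at 20 °C; visual rating 0–100% disease control versus controls.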
# Botrytis cinerea = assay: Test A: preventive spray on tomato seedlings, visual disease rating (tomato Botrytis); conditions: no asterisk: standard test suspension, not 40 ppm, 100 = 100% disease control, 0 = none
# How it was run: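 Preventive test: Botrytis cinerea spores applied one day after run-off spraying at 200 ppm (≈800 g/ha), or 40 ppm where asterisked. Incubation 48 h at 20 °C in saturated air, then 3 days at 24 °C; disease scored visually from 0 (no control) to 100 (complete control) versus untreated.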
# [2] = tested on: Puccinia recondite f. sp. tritici; assay: Test E1: curative spray on wheat seedlings after inoculation, visual disease rating (wheat leaf rust)
# How it was run: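 Seedlings inoculated with rust spores, held 24 h in saturated atmosphere at 20 °C, then 2 days at 20 °C before curative spray to run-off with test suspension (200 ppm ≈ 800 g/ha, or 40 ppm where marked) in acetone/water with surfactant. Visual disease control rating (0–100) after 6 further days at 20 °C.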
# [3] = tested on: Blumeria graminis f. sp. tritici; assay: Test F: preventive spray on wheat seedlings, visual disease rating (wheat powdery mildew); conditions: no asterisk: standard test suspension, not 40 ppm
# How it was run: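 Visual ratings (0–100% control relative to controls) taken 8 days after spore-dust inoculation at 20° C. Inoculation followed one day after a protective run-off spray of 200 ppm suspension, equal to 800 g/ha, or 40 ppm where flagged, made in acetone/water with 250 ppm surfactant.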
# [4] = no asterisk: standard test suspension, not 40 ppm
# [5] = asterisk: 40 ppm test suspension
Compound,Test E2 rating (% disease control) [1] [%],Test D rating (% disease control) (Septoria tritici) [%],Test B rating (% disease control) (Alternaria solani; [4]) [%],Test C rating (% disease control) (Septoria nodorum; [4]) [%],Test A rating (% disease control) (Botrytis cinerea) [%],"Test E1 rating (% disease control) [2, 4] [%]",Test F rating (% disease control) [3] [%],Test B rating (% disease control) (Alternaria solani; [5]),Test C rating (% disease control) (Septoria nodorum; [5]),"Test E1 rating (% disease control) [2, 5]"
"4-[[5-(2-chloro-4-fluorophenyl)-1,3-dimethyl-1H-pyrazol-4-yl]amino]-3,5-difluorobenzonitrile [Compound 40]",68,0,0,0,100,38,91,,,
"Cc1nn(C)c(-c2c(F)cccc2F)c1C(O)c1ccc(F)cc1Cl (single isomer, unassigned) [compound 86]",100,100,,,99,,100,100* %,99* %,99* %
Cc1nn(C)c(-c2c(F)cccc2F)c1Nc1ccc(F)cc1Cl [compound 50],79,100,93,0,99,0,98,,,
"(2,4-difluorophenyl)-[5-(2,4-difluorophenyl)-1,3-dimethyl-1H-pyrazol-4-yl]methanone [Compound 32]",9,100,96,0,0,0,0,,,
Cc1nn(C)c(-c2c(F)cccc2F)c1C(F)c1ccc(F)cc1Cl (stereo not shown) [Compound 54],99,100,100,99,100,100,99,,,
Cc1nn(C)c(-c2c(F)cccc2Cl)c1C(O)c1c(Cl)cccc1Cl (stereo not shown) [compound 85],100,100,84,0,97,9,50,,,
"Cc1nn(C)c(-c2ccccc2Br)c1C(O)c1ccc(F)cc1Cl (single isomer, unassigned) [compound 80]",99,100,97,69,99,99,99,,,
Cc1nn(C)c(-c2c(F)cccc2F)c1[S+]([O-])c1ccc(Cl)cc1 (stereo not shown) [compound 63],28,0,0,0,0,0,76,,,
"α-(2,4-difluorophenyl)-5-(2,6-difluorophenyl)-1,3-dimethyl-1H-pyrazole-4-methanol [Compound 14]",98,100,0,0,98,75,97,,,
"Cc1nn(C)c(-c2ccccc2Br)c1C(O)c1ccc(F)cc1Cl (single isomer, unassigned) [compound 79]",100,100,0,0,98,53,99,,,
